# Tests used:
# [1] = test system: patients with autism spectrum disorder classified as Phenotype 1; experiment: ADI-r scores of ASD phenotype 1 patients under treatment; type: in vivo, human; conditions: after four weeks of ibudilast 0.6 mg/kg daily total, TID
# Protocol: A pharmaceutical composition comprising ibudilast and bumetanide was administered to patients with a diagnosis of autism spectrum disorder as defined in the DSM-5, or PDD-NOS or Asperger syndrome as defined in the DSM-IV. Eligibility criteria: male sex, age 5-50, no current chronic illness, no history of active seizures within 1 year, normal liver, renal and thyroid function. Concomitant medications were permitted if doses were stable for at least 60 days prior to the initiation of the challenge test. Patients with no syndromic or identified genetic etiology. […] Description: Four of the patients characterized as above were administered ibudilast. The four subjects had varying levels of functioning ranging from mild to severe, and varying different levels of verbal and intellectual abilities. IQ values ranged from 61 to 86. All were males. Four patients were treated with ibudilast at a daily total dosage of 0.6 mg/kg, TID. A new treatment regimen was introduced, this time ibudilast at a daily total dosage of 0.6 mg/kg, TID, was administered in conjunction with bumetanide at a daily total dosage of 0.08 mg/kg, BID (with a maximum upper daily dose of […]).
# [2] = single dose of 10 mg, healthy adults, in 72 hours; cited from earlier work
compound,measurement,setting,value
CC(C)C(=O)c1c(C(C)C)nn2ccccc12 [ibudilast],ADI-r RI,"[1]; Patient 1, baseline 7",6
same,ADI-r C,"[1]; Patient 1, baseline 24",20
same,ADI-r SI,"[1]; Patient 1, baseline 28",21
same,ADI-r RI,"[1]; Patient 2, baseline 5",5
same,ADI-r C,"[1]; Patient 2, baseline 19",15
same,ADI-r SI,"[1]; Patient 2, baseline 20",16
same,ADI-r RI,"[1]; Patient 3, baseline 7",5
same,ADI-r SI,"[1]; Patient 3, baseline 14",12
same,ADI-r C,"[1]; Patient 3, baseline 18",14
same,ADI-r RI,"[1]; Patient 4, baseline 7",7
same,ADI-r C,"[1]; Patient 4, baseline 17",14
same,ADI-r SI,"[1]; Patient 4, baseline 27",22
same,dose excreted as metabolites in urine,[2],about 60%

# Reference: patent US11439627B2, “Pharmaceutical composition for the treatment of autism” (Stalicla S.A., priority 2017, dated 2022)
